{"source": "paper PMC12913230", "about": "“Investigating the Ligand‐Binding Properties of N‐arylbenzimidazoles as Novel Elastase Inhibitors” (Chemmedchem, 2025)", "key": {"[1]": {"test": "Relative lipophilicity by reverse-phase TLC (RM)", "type": "physicochemical", "settings": "RP-TLC C18, acetone–water 2/1 v/v, 25 °C, RM = log[(1/RF) − 1]", "protocol": "In addition, we assessed the relative lipophilicity of the investigated compounds using the reverse‐phase thin layer chromatography (RP‐TLC), following the procedure detailed in Experimental Section. Based on retention factor (R F), we obtained the corresponding R M values for the homogenous series of compounds 1–9. The applied methodology is described in detail in the Experimental Section.\nThe experimental determination of relative lipophilicity was carried out using reversed‐phase thin‐layer chromatography (20 × 20 cm plates coated with C18 silica RP18 F254, E. Merck, Darmstadt, Germany). A binary solvent system consisting of acetone–water (2/1, v/v) served as the mobile phase. Compounds 1–9 were prepared in methanol to obtain a concentration of 2.0 mg/mL; from these working solutions, a volume of 0.2 μL was spotted on the plate, which was dried at 105 °C for 1 h before use. The chromatograms were developed to a distance of 10 cm from the origin in ascending TLC chambers and developed at 25 °C. After development, compound spots were visualized under UV light at 254 nm. Each determination was performed as triplicate 3 by spotting the compounds on the plate in distinct position; therefore, each RF value resulted as a mean value obtained in triplicate."}, "[2]": {"molecular_target": "T1, porcine pancreatic elastase (PPE) (Sus scrofa, UniProt P00772)", "T1 construct": "purchased Merck Sigma Aldrich (Milano, Italy)", "T1 sequence (P00772 27-266)": "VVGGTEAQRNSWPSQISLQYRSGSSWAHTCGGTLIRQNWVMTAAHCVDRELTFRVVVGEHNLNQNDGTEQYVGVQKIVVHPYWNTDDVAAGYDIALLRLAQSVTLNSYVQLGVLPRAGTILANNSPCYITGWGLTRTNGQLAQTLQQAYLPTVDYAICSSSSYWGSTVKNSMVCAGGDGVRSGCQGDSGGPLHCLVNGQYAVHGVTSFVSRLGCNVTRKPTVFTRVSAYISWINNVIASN", "set-up": "method as in PMID 39456954", "settings": "PPE active site; cited from earlier work"}, "[3]": {"molecular_target": "T1, porcine pancreatic elastase (PPE)", "test": "Elastase inhibition assay with SANA substrate", "type": "biochemical", "settings": "for %I @50 μM / mode of inhibition (Lineweaver–Burk plot) / IC50: PPE; for %I @50 μM: 50 µM compound, SANA substrate, mean ± SD, n = 3; for mode of inhibition (Lineweaver–Burk plot): SANA as substrate; for IC50: SANA substrate 1.6 mM, Tris-HCl pH 8.0; for Ki: binding with the free enzyme, secondary plot of Lineweaver–Burk slopes, SANA 0.5-1.5 mM, read-out: inhibition constant (Ki)", "protocol": "The inhibition mechanism was assessed using Lineweaver–Burk plot analysis.\nElastase inhibition was determined using the substrate N‐succ‐(Ala)3‐nitroanilide (SANA) as previously described.^[ [27] ^] The assay was performed in 0.1 M Tris‐HCl buffer (pH 8.0). PPE (3.3 µg mL^−1) was incubated with or without the compound for 20 min, and after incubation, the substrate (1.6 mM) was added. The release of p‐nitroaniline during cleavage of the substrate SANA by the enzyme activity was monitored at 410 nm. The control was performed with DMSO, while oleanolic acid was used as a positive control. […] The mode of inhibition on the enzyme was performed using the Lineweaver–Burk plot. Different concentrations of SANA (0.5, 0.75, 1.0, and 1.5 mM) were used for the assay. All reagents were purchased from “Merck Sigma Aldrich” (Milano, Italy)."}}}
{"smiles": "Cc1cc(C)cc(Cn2c(SCC(=O)Nc3ccc(C)cc3Cl)nc3ccccc32)c1", "note": "[Compound 1, N‐(2‐chloro‐4‐methylphenyl)‐2‐[[1‐[(3,5‐dimethylphenyl)methyl]‐1H‐benzimidazol‐2‐yl]thio]acetamide]", "values": [{"measurement": "RM (relative lipophilicity)", "setting": "[1]", "value": 1.023}, {"measurement": "mode of inhibition", "setting": "[2]", "value": "reversible competitive inhibitor"}, {"measurement": "%I @50 μM", "setting": "[3]", "value": "30.0 ± 2.1", "unit": "%"}]}
{"smiles": "Cc1cc(C)cc(Cn2c(SCC(=O)Nc3ccccc3Cl)nc3ccccc32)c1", "note": "[Compound 2, N‐(2‐Chlorophenyl)‐2‐(1‐(3,5‐dimethylbenzyl)‐1H‐benzo[d]imidazol‐2‐ylthio)acetamide]", "values": [{"measurement": "RM (relative lipophilicity)", "setting": "[1]", "value": 0.971}, {"measurement": "%I @50 μM", "setting": "[3]", "value": "29.1 ± 2.3", "unit": "%"}]}
{"smiles": "Cc1cc(C)cc(Cn2c(SCC(=O)Nc3ccccc3Br)nc3ccccc32)c1", "note": "[Compound 3, N‐(2‐Bromophenyl)‐2‐(1‐(3,5‐dimethylbenzyl)‐1H‐benzo[d]imidazol‐2‐ylthio)acetamide]", "values": [{"measurement": "RM (relative lipophilicity)", "setting": "[1]", "value": 0.938}, {"measurement": "%I @50 μM", "setting": "[3]", "value": "26.5 ± 0.4", "unit": "%"}]}
{"smiles": "Cc1cc(C)cc(Cn2c(SCC(=O)Nc3ccc(S(C)(=O)=O)cc3Cl)nc3ccccc32)c1", "note": "[Compound 4, N‐(2‐Chloro‐4‐(methylsulfonyl)phenyl)‐2‐(1‐(3,5‐dimethylbenzyl)‐1H‐benzo[d]imidazol‐2‐ylthio)acetamide]", "values": [{"measurement": "RM (relative lipophilicity)", "setting": "[1]", "value": 0.678}, {"measurement": "%I @50 μM", "setting": "[3]", "value": "17.3 ± 0.7", "unit": "%"}]}
{"smiles": "Cc1cc(C)cc(Cn2c(SCC(=O)Nc3ccc(S(N)(=O)=O)cc3Cl)nc3ccccc32)c1", "note": "[Compound 5, N‐(2‐Chloro‐4‐sulfamoylphenyl)‐2‐(1‐(3,5‐dimethylbenzyl)‐1‐benzo[d]imidazol‐2‐ylthio)acetamide]", "values": [{"measurement": "RM (relative lipophilicity)", "setting": "[1]", "value": 0.558}, {"measurement": "%I @50 μM", "setting": "[3]", "value": "19.3 ± 0.9", "unit": "%"}]}
{"smiles": "Cc1cc(C)cc(Cn2c(SCC(=O)Nc3ccccc3Cl)nc3ccc(Cl)cc32)c1", "note": "[Compound 6, 2‐(6‐Chloro‐1‐(3,5‐dimethylbenzyl)‐1H‐benzo[d]imidazol‐2‐ylthio)‐N‐(2‐chlorophenyl)acetamide]", "values": [{"measurement": "RM (relative lipophilicity)", "setting": "[1]", "value": 1.221}, {"measurement": "%I @50 μM", "setting": "[3]", "value": "57.4 ± 2.6", "unit": "%"}, {"measurement": "mode of inhibition (Lineweaver–Burk plot)", "setting": "[3]", "value": "competitive"}, {"measurement": "IC50", "setting": "[3]", "value": "44.8 ± 1.4", "unit": "µM"}, {"measurement": "Ki", "setting": "[3]", "value": 25.8, "unit": "µM"}]}
{"smiles": "Cc1cc(C)cc(Cn2c(SCC(=O)Nc3ccccc3Br)nc3ccc(Cl)cc32)c1", "note": "[Compound 7, N‐(2‐Bromophenyl)‐2‐(6‐chloro‐1‐(3,5‐dimethylbenzyl)‐1H‐benzo[d]imidazol‐2‐ylthio)acetamide]", "values": [{"measurement": "RM (relative lipophilicity)", "setting": "[1]", "value": 1.195}, {"measurement": "%I @50 μM", "setting": "[3]", "value": "62.2 ± 2.1", "unit": "%"}, {"measurement": "mode of inhibition (Lineweaver–Burk plot)", "setting": "[3]", "value": "competitive"}, {"measurement": "IC50", "setting": "[3]", "value": "41.1 ± 1.9", "unit": "µM"}, {"measurement": "Ki", "setting": "[3]", "value": 21, "unit": "µM"}]}
{"smiles": "Cc1cc(C)cc(Cn2c(SCC(=O)Nc3ccc(C)cc3Cl)nc3ccc(Cl)cc32)c1", "note": "[Compound 8, 2‐(6‐chloro‐1‐(3,5‐dimethylbenzyl)‐1H‐benzo[d]imidazol‐2‐ylthio)‐N‐(2‐chloro‐4‐methylphenyl)acetamide]", "values": [{"measurement": "RM (relative lipophilicity)", "setting": "[1]", "value": 1.121}, {"measurement": "%I @50 μM", "setting": "[3]", "value": "40.6 ± 0.7", "unit": "%"}]}
{"smiles": "Cc1cc(C)cc(Cn2c(SCC(=O)Nc3ccc(S(C)(=O)=O)cc3Cl)nc3ccc(Cl)cc32)c1", "note": "[Compound 9, 2‐(6‐Chloro‐1‐(3,5‐dimethylbenzyl)‐1H‐benzo[d]imidazol‐2‐ylthio)‐N‐(2‐chloro‐4‐(methylsulfonyl)phenyl)acetamide]", "values": [{"measurement": "RM (relative lipophilicity)", "setting": "[1]", "value": 1.023}, {"measurement": "%I @50 μM", "setting": "[3]", "value": "31.0 ± 0.6", "unit": "%"}]}
